The values below come from patent US20210261538A1, “PROTEIN ARGININE METHYLTRANSFERASE 5 (PRMT5) DEGRADATION / DISRUPTION COMPOUNDS AND METHODS OF USE” (ICAHN SCHOOL OF MEDICINE AT MOUNT SINAI, priority 2018, published 2021).

In one experiment the test system is PRMT5 substrates. Description: Arginine symmetric dimethylation (SDMA Western blot) in MCF-7 cells. The class given is cell-based. As to conditions: MCF-7 cells (Examples 90-92). The procedure: MCF-7 cells, HEK293T cells and HeLa cells were cultured in Dulbecco's Modified Eagle Medium (DMEM) supplemented with 10% fetal bovine serum (FBS) in 5% CO2 at 37° C. Jurkat cells were cultured in RPMI 1640 medium supplemented with 10% FBS in 5% CO2 at 37° C. H2171 cells were cultured in HITES medium supplemented with 10% FBS in 5% CO2 at 37° C. HCT116 were cultured in McCoy's 5A medium supplemented with 10% fetal bovine serum (FBS) in 5% CO2 at 37° C. All the cells lines were treated with 5 μM (or indicated concentration) of PRMT5 inhibitor (EPZ015666) or degraders, or equivalent volume of DMSO for 6 days (or indicated time points). Fresh compounds were constituted in medium and used for every 2 days. The antibodies used in this study are: PRMT5 antibody (Active Motif), (3-actin antibody (Sigma), SDMA antibody (collaboration with Cell Signaling Technologies). Cell cultures were harvested at the end of compound treatments and applied subjected to western blotting assay. Briefly, cells were washed with PBS and lysed with RIPA lysis buffer for 20 minutes on ice. Then lysates were centrifuged and the clear supernatant were collected. SDS loading buffer was added to the lysates and then the mixture was boiled at 100° C. for 5 minutes. Samples were loaded to 10% or 12% SDS-PAGE gel and ran at 120V for 1.5 hours. Then the proteins were transferred to PVDF membrane and blocked in 5% milk fat at room temperature for 1 hour. Then the membranes were incubated with indicated antibodies at 4° C. overnight. Membranes were washed with PBST buffer three times for 10 minutes each time and incubated with HRP-conjugated (horse radish peroxidase) secondary antibodies at room temperature for 1 hour. Again the membranes were washed with PBST buffer three times for 10 minutes each time. Finally, the indicated proteins on the membranes were visualized with ECL (enhanced chemiluminescence) reagents. MCF-7 cells were treated with EPZ015666 or YS43-22 at indicated compound concentrations (μM) for 6 days.
For orientation: A western blot detects proteins with antibodies after separation by electrophoresis.

A further experiment deals with PRMT5 (Homo sapiens, UniProt O14744). Description: Western blot of PRMT5 protein levels in MCF-7 cells. Further details: endogenous in cells; host or cells: MCF-7. As to conditions: for suppressing PRMT5 expression: MCF-7 cells (Examples 90-92). The format is cell-based. The procedure: MCF-7 cells, HEK293T cells and HeLa cells were cultured in Dulbecco's Modified Eagle Medium (DMEM) supplemented with 10% fetal bovine serum (FBS) in 5% CO2 at 37° C. Jurkat cells were cultured in RPMI 1640 medium supplemented with 10% FBS in 5% CO2 at 37° C. H2171 cells were cultured in HITES medium supplemented with 10% FBS in 5% CO2 at 37° C. HCT116 were cultured in McCoy's 5A medium supplemented with 10% fetal bovine serum (FBS) in 5% CO2 at 37° C. All the cells lines were treated with 5 μM (or indicated concentration) of PRMT5 inhibitor (EPZ015666) or degraders, or equivalent volume of DMSO for 6 days (or indicated time points). Fresh compounds were constituted in medium and used for every 2 days. The antibodies used in this study are: PRMT5 antibody (Active Motif), (3-actin antibody (Sigma), SDMA antibody (collaboration with Cell Signaling Technologies). Cell cultures were harvested at the end of compound treatments and applied subjected to western blotting assay. Briefly, cells were washed with PBS and lysed with RIPA lysis buffer for 20 minutes on ice. Then lysates were centrifuged and the clear supernatant were collected. SDS loading buffer was added to the lysates and then the mixture was boiled at 100° C. for 5 minutes. Samples were loaded to 10% or 12% SDS-PAGE gel and ran at 120V for 1.5 hours. Then the proteins were transferred to PVDF membrane and blocked in 5% milk fat at room temperature for 1 hour. Then the membranes were incubated with indicated antibodies at 4° C. overnight. Membranes were washed with PBST buffer three times for 10 minutes each time and incubated with HRP-conjugated (horse radish peroxidase) secondary antibodies at room temperature for 1 hour. Again the membranes were washed with PBST buffer three times for 10 minutes each time. Finally, the indicated proteins on the membranes were visualized with ECL (enhanced chemiluminescence) reagents. MCF-7 cells were treated with DMSO or indicated compounds at 5 μM for 6 days. […] MCF-7 cells were treated with DMSO or indicated serial dilutions of compounds for 6 days. The PRMT5 protein levels were determined by Western blot.

A further experiment deals with MCF-7 cells. The experiment can be described thus: Cell proliferation assay (Cell-Titer Glo) in MCF-7 cells. The format is cell-based. Particulars: 5 μM, 10 days. The procedure:
The same starting number of MCF-7 cells were treated with DMSO, 5 μM EPZ015666 or YS43-22 for up to 10 days. Every two days, fresh compounds were constituted in DMEM medium and added to the cell culture. Relative cell numbers were counted every two days (i.e. day 0, 2, 4, 6, 8 and 10) using Cell-Titer Glo kit (Promega). MCF-7 cells were treated with DMSO, EPZ015666 (5 μM), or YS43-22 (5 μM) for 10 days.

In another experiment the test system is cancer cells. As to conditions: EPZ015666 alone (Jin, 2016; Kryukov, 2016); cited from earlier work.
For a further experiment, the system named is MTAP-deleted cells. Particulars: cited from earlier work.

Sequence of PRMT5 (O14744 whole entry): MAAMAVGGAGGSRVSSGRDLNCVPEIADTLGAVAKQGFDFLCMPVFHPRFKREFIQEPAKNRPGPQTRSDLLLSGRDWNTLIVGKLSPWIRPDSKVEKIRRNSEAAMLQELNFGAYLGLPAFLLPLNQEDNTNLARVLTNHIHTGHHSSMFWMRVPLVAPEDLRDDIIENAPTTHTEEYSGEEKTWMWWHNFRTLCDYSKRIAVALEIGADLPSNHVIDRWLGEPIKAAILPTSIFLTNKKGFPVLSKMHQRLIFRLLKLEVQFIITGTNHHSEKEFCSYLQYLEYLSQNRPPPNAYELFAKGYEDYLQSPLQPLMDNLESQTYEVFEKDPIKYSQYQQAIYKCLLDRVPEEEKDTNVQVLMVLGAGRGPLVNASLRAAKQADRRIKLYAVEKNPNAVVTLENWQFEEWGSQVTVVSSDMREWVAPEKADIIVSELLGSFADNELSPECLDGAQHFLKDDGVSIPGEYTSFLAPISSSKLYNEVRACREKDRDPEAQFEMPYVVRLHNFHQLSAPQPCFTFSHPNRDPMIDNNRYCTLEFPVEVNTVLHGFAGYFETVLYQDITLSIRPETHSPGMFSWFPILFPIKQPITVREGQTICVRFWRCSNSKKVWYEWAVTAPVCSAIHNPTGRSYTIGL
Sequence of PRMT5 (Q9BQA1 whole entry partner): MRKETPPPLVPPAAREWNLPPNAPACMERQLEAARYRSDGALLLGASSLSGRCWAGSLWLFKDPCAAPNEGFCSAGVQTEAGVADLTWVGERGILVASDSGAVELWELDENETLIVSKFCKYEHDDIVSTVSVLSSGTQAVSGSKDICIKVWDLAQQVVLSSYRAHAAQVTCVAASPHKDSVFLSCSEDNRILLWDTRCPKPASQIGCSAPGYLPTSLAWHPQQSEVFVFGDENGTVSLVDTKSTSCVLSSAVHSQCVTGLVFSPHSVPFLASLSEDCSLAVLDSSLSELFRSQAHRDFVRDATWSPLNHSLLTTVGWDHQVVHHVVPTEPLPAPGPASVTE

Regarding `Cc1ncsc1-c1ccc(CNC(=O)[C@@H]2C[C@@H](O)CN2C(=O)[C@@H](NC(=O)COCCOCCOCCOCCOCC(=O)N2CC(Nc3cc(C(=O)NC[C@H](O)CN4CCc5ccccc5C4)ncn3)C2)C(C)(C)C)cc1` [YS31-60, N-((S)-3-(3,4-dihydroisoquinolin-2(1H)-yl)-2-hydroxypropyl)-6-((1-((S)-19-((2S,4R)-4-hydroxy-2-((4-(4-methylthiazol-5-yl)benzyl)carbamoyl)pyrrolidine-1-carbonyl)-20,20-dimethyl-17-oxo-3,6,9,12,15-pentaoxa-18-azahenicosanoyl)azetidin-3-yl)amino)pyrimidine-4-carboxamide], the “suppressing PRMT5 activity” value in the experiment with PRMT5 substrates is given as “especially effective”. Further, the “suppressing PRMT5 expression” value on PRMT5 is “especially effective”.
Consider `O=C1CCC(N2C(=O)c3cccc(NCCCCCCC(=O)N4CC(Nc5cc(C(=O)NC[C@H](O)CN6CCc7ccccc7C6)ncn5)C4)c3C2=O)C(=O)N1` (stereo partly drawn) [YS43-8, N-((S)-3-(3,4-dihydroisoquinolin-2(1H)-yl)-2-hydroxypropyl)-6-((1-(7-((2-(2,6-dioxopiperidin-3-yl)-1,3-dioxoisoindolin-4-yl)amino)heptanoyl)azetidin-3-yl)amino)pyrimidine-4-carboxamide], for which the “suppressing PRMT5 activity” value in the experiment with PRMT5 substrates is on record as “especially effective”. In addition, the “suppressing PRMT5 expression” value at PRMT5 is given as “especially effective”. The “PRMT5 protein levels, concentration and time dependence” value at PRMT5 (MCF-7 cells, serial dilutions of compounds, 6 days, Western blot) was “concentration- and time-dependent”.
With `Cc1ncsc1-c1ccc(CNC(=O)[C@@H]2C[C@@H](O)CN2C(=O)[C@@H](NC(=O)CCOCCOCCOCCOCCOCCC(=O)N2CC(Nc3cc(C(=O)NC[C@H](O)CN4CCc5ccccc5C4)ncn3)C2)C(C)(C)C)cc1` [YS43-16, N-((S)-3-(3,4-dihydroisoquinolin-2(1H)-yl)-2-hydroxypropyl)-6-((1-((S)-21-((2S,4R)-4-hydroxy-2-((4-(4-methylthiazol-5-yl)benzyl)carbamoyl)pyrrolidine-1-carbonyl)-22,22-dimethyl-19-oxo-4,7,10,13,16-pentaoxa-20-azatricosanoyl)azetidin-3-yl)amino)pyrimidine-4-carboxamide], in the experiment with PRMT5 substrates, the “suppressing PRMT5 activity” value is given as “especially effective”. Further, the “suppressing PRMT5 expression” value at PRMT5 is reported as “especially effective”.
Take `O=C(NC[C@H](O)CN1CCc2ccccc2C1)c1cc(NC2COC2)ncn1` [EPZ015666, reference compound]: the “cell growth of MCF-7 cells” value with MCF-7 cells is “significantly inhibited”. Moreover, the “inhibition of cancer cell proliferation” value with cancer cells is “failed to optimally inhibit”. The “anti-proliferation effect compared with genetic PRMT5 knockdown” value in the experiment with MTAP-deleted cells is given as “did not lead to a similar anti-proliferation effect”. Further, the PRMT5 protein levels result on PRMT5 (MCF-7 cells, 5 μM, 6 days, Western blot) is “no effect”.
